In general, melting point refers to the temperature of the solid-liquid transition.

The molecule `O=C(O)c1cccc(NC(=O)c2ccccc2Oc2ccc(C(=O)O)c(C(=O)O)c2)c1` [Compound 134, 4-[2-(3-Carboxyphenylcarbamoyl)phenoxy]phthalic acid] had a melting point of 202 to 208 °C. `O=C(O)c1cc(Oc2ccccc2NC(=O)c2cccc([N+](=O)[O-])c2)cc(C(=O)O)c1` [Compound 121, 5-[2-(3-Nitrobenzoylamino)phenoxy]isophthalic acid]: the melting point was 184 to 190 °C. Under `O=C(Nc1ccccc1Sc1ccc(C(=O)O)c(C(=O)O)c1)c1cccc([N+](=O)[O-])c1` [Compound 125, 4-[2-(3-Nitrobenzoylamino)phenylsulphenyl]phthalic acid] stands 172.8 to 173.9 °C; under `O=C(Cc1ccc(O)c([N+](=O)[O-])c1)Nc1ccccc1Oc1ccc(C(=O)O)c(C(=O)O)c1` [Compound 174, 4-{2-[2-(4-Hydroxy-3-nitrophenyl)-acetylamino]phenoxy}phthalic acid], 187.8 to 189.9 °C; under `COC(=O)c1ccc(C(=O)c2ccc(NC(=O)c3cccc([N+](=O)[O-])c3)cc2)cc1C(=O)OC` [Compound 114, 4-[4-(3-Nitrobenzoylamino)benzoyl]phthalic acid dimethyl ester], 144 to 146 °C. Consider `CC(=O)Nc1ccccc1Oc1ccc(C#N)c(C#N)c1` [Compound 94, N-[2-(3,4-Dicyanophenoxy)phenyl]acetamide], for which the melting point fell in the range of 152.2 to 153.7 °C. Under `O=C(Cc1cc([N+](=O)[O-])ccc1Cl)Nc1ccccc1Oc1ccc(C(=O)O)c(C(=O)O)c1` [Compound 175, 4-{2-[2-(2-Chloro-5-nitrophenyl)acetylamino]phenoxy}phthalic acid] stands 176 to 178.2 °C; under `O=C(Nc1ccc(Oc2ccc(C(=O)O)c(C(=O)O)c2)cc1)c1cccc([N+](=O)[O-])c1` [Compound 123, 4-[4-(3-Nitrobenzoylamino)phenoxy]phthalic acid], 225 to 227 °C. Under `N#Cc1ccc(Oc2ccccc2NC(=O)c2cccc([N+](=O)[O-])c2)cc1C#N` [Compound 176, N-[2-(3,4-Dicyanophenoxy)phenyl]-3-nitrobenzamide] stands 176.5 to 178.1 °C.

In turn, `O=C(O)c1ccc(Oc2ccccc2NC(=O)c2cccc([N+](=O)[O-])c2)c(C(=O)O)c1` [Compound 122, 4-[2-(3-Nitrobenzoylamino)phenoxy]isophthalic acid] gave a melting point of 255 to 257 °C.

As to `COC(=O)c1ccc(C(=O)c2ccccc2NC(=O)c2cccc([N+](=O)[O-])c2)cc1C(=O)OC` [Compound 115, 4-[2-(3-Nitrobenzoylamino)benzoyl]phthalic acid dimethyl ester], the melting point lay within 133 to 137 °C.

The record behind these values is patent publication US6590118B1, “Aromatic compounds” (Novo Nordisk A/S, priority 1999, dated 2003).
